Our source for the Concentration that doubles (EC2X) or quintuples (EC5X) the AMPA-induced current values is US20050014744A1, “Benzothiazine and benzothiadiazine compounds” (priority 2001, published 2005).

The assay deals with AMPA receptors. The assay can be described thus: Excitatory fluxes induced by AMPA in Xenopus oocytes (2-electrode voltage-clamp). Type of assay: cell-based. Conditions: Xenopus oocytes injected with rat cerebral cortex poly-(A+) mRNA, AMPA 10 μM, 20 to 24° C., OR2 medium. The protocol: Study of the Excitatory Fluxes Induced By AMPA in Xenopus oocytes
mRNAs are prepared from cerebral cortex of male Wistar rat by the guanidinium thiocyanate/phenol/chloroform method. The poly-(A^+) mRNAs are isolated by chromatography on oligo-dT cellulose and injected in an amount of 50 ng per oocyte. The oocytes are left to incubate for 2 to 3 days at 18° C. to allow expression of the receptors and are then stored at from 8 to 10° C.
Electrophysiological recording is carried out in a Plexiglass® chamber at from 20 to 24° C. in OR2 medium (J. Exp. Zool., 1973, 184, 321-334) by the 2-electrode “voltage-clamp” method, a 3rd electrode being placed in the bath to serve as reference.
All the compounds are administered via the incubation medium and the electric current is measured at the end of the period of administration. AMPA is used at a concentration of 10 μM. For each compound studied, the concentration that doubles (EC2X) or quintuples (EC5X) the intensity of the current induced by AMPA alone (5 to 50 nA) is determined.

Each structure is given as a SMILES string. Where two headings read alike, the source gives them in different places.

With `O=C(Oc1ccc2c(c1)S(=O)(=O)NCC2)c1ccccc1` [Example 2, 1,1-Dioxido-3,4-dihydro-2H-1,2-benzothiazin-7-yl Benzoate], the Concentration that doubles (EC2X) or quintuples (EC5X) the AMPA-induced current (read-out: EC2X (concentration that doubles the intensity of the current induced by AMPA alone)) stood at 11.9 µM and the Concentration that doubles (EC2X) or quintuples (EC5X) the AMPA-induced current (read-out: EC5X (concentration that quintuples the intensity of the current induced by AMPA alone)) amounted to 49.3 µM.
